Results reported in US10045994B2, “Agents for treating multiple myeloma” (SERVICIO ANDALUZ DE SALUD, priority 2013, dated 2018).
Entries after “also recorded” stand apart in the source; their conditions may differ. Like-named read-outs stand apart in the source and are kept apart here.

Key:
[1] = system: CD34+ hematopoietic progenitors; assay: MTT cytotoxicity on CD34+ hematopoietic progenitors from healthy donors; type: cell-based, human; conditions: CD34+ hematopoietic progenitors of healthy donors, 0.5-50 micromol, 12 or 18 h
Procedure: (§1) Finally, the authors of the present invention evaluated the toxicity of cannabinoid agent WIN 55,212-2, which was determined in terms of cell viability by means of two types of assays, one based on the drop in 3(4,5dimethyl-2-thiazoyl)-2,5-diphenyltetrazolic bromide (MTT), and another one based on the interaction of 7AAD. Primary cultures of mononuclear cells obtained from peripheral blood from healthy donors (CD34+ hematopoietic progenitors) and from bone marrow of patients suffering multiple myeloma (CD64+, granulocytes (B), CD45+, lymphocytes (C) and CD38+, plasma cells (D)) were used. […]
The method for the determination of cell viability by means of the MTT assay is based on the capacity that viable cells have of metabolizing 3-(4,5-dimethylthiazol-2-yl)-2,5-diphenyltetrazol (MTT) bromide. The metabolic reduction of MTT due to the action of the mitochondrial enzyme, succinate dehydrogenase, gives rise to the insoluble and colored form called formazan, which can be quantified by means of spectrocolorimetry. […]
After incubation with cannabinoids, 10 microliters of MTT were added to each well and were incubated 2-4 hours in the same conditions. The reaction is subsequently stopped, the crystallized formazan is solubilized and optical density was determined at 450 nm in a plate spectrophotometer. […]

[2] = system: CD64+ granulocytes (polymorphonuclear cells); assay: 7AAD viability of granulocytes in primary bone marrow culture of myeloma patients; type: cell-based, human; conditions: 0.5-50 micromol, 18 h
Procedure: as §1
(§2) For the viability analysis by means of flow cytometry, the cells were treated with suitably labeled monoclonal antibodies for the identification of each of the cell types used. Once labeled; the cells were exposed for 15 min to 7AAD ([…]) to evaluate cell viability; the reading was performed in the cytometer and analyzed with the computer program adapted for the cytometer. At least 100,000 events were acquired, and the mean fluorescence intensity was obtained.
(§3) The authors of the present invention evaluated the toxicity of cannabinoid agent WIN 55,212-2, which was determined in terms of cell viability by means of two types of assays, one based on the drop in 3(4,5dimethyl-2-thiazoyl)-2,5-diphenyltetrazolic (MTT) bromide, and another one based on the interaction of the 7AAD. […]

myeloma cell line U266 [3] = assay: Cell viability by flow cytometry (7AAD labeling), U266; type: cell-based; conditions: U266, 7AAD flow cytometry, 48 h
Procedure: These same assays were repeated incubating the myeloma cell line U266 for a period of 48 hours with increasing concentrations of WIN 55,212-2 between 0.5 and 50 uM.
as §2
These same assays were repeated, incubating myeloma cell line U266 for a period of 48 hours with increasing concentrations of WIN 55,212-2 between 0.5 and 50 uM. Nevertheless, cell viability was determined by means of flow cytometry instead of by means of MTT metabolization.

CD38+ plasma cells = assay: 7AAD viability of plasma cells in primary bone marrow culture of myeloma patients; type: cell-based, human
Procedure: Finally, the authors of the present invention evaluated the toxicity of cannabinoid agent WIN 55,212-2, which was determined in terms of cell viability by means of two types of assays, one based on the drop in 3(4,5dimethyl-2-thiazoyl)-2,5-diphenyltetrazolic bromide (MTT), and another one based on the interaction of 7AAD. Primary cultures of mononuclear cells obtained from peripheral blood from healthy donors (CD34+ hematopoietic progenitors) and from bone marrow of patients suffering multiple myeloma (CD64+, granulocytes (B), CD45+, lymphocytes (C) and CD38+, plasma cells (D)) were used.
The plasma cells, granulocytes and lymphocytes were obtained from bone marrow samples from patients with multiple myeloma after hypotonic lysis with ammonium chloride (0.16 M in 0.17 M Tris, pH 7.6) for 10 min at room temperature, for the purpose of removing the erythrocyte cell population. The cell suspension resulting from lysis, which only contains mononuclear cells, was seeded in multiwell plates at the same cell density as the progenitor cells using supplemented RPMI medium plus 20% fetal bovine serum.
The primary cultures were incubated in the presence and absence of the cannabinoid agent WIN 55,212-2 at different concentrations. […]
as §2, §3

myeloma cell line U266 [4] = assay: MTT cell viability, myeloma cell line U266; type: cell-based; conditions: for cytotoxicity at 50 µM: Homo sapiens
Procedure: In order to determine the effect of the cannabinoid compound WIN 55,212-2, myeloma cell line U266 was incubated for a period of 48 and 96 hours with increasing concentrations of WIN 55,212-2 between 0.5 and 50 uM; cell viability was determined by means of the MTT metabolization. The MTT assay is based on the capacity of the mitochondrial enzyme, succinate dehydrogenase, of viable cells for transforming the tetrazolium salt MTT into a blue-colored product, MTT formazan, which is proportional to the number of living cells present. The mean proliferation values of the untreated control cell cultures were taken as 100%.
(§4) The method for the determination of cell viability by means of the MTT assay is based on the capacity that viable cells have of metabolizing 3-(4,5-dimethylthiazol-2-yl)-2,5-diphenyltetrazol (MTT) bromide. The metabolic reduction of MTT due to the action of the mitochondrial enzyme, succinate dehydrogenase, gives rise to the insoluble and colored form called formazan, which can be quantified by means of spectrocolorimetry. The amount of living cells is proportional to the optical density resulting.
(§5) After incubation with cannabinoids, 10 microliters of MTT were added to each well and were incubated 2-4 hours in the same conditions. The reaction is subsequently stopped, the crystallized formazan is solubilized and optical density was determined at 450 nm in a plate spectrophotometer. All the assays were performed in triplicate.
To determine the effect of cannabinoid compound WIN 55,212-2, myeloma cell line U266 was incubated for a period of 48 and 96 hours with increasing concentrations of WIN 55,212-2 between 0.5 and 50 uM; cell viability was determined by means of MTT metabolization. The MTT assay is based on the capacity of the mitochondrial enzyme, succinate dehydrogenase, of viable cells to transform tetrazolium salt MTT into a blue-colored product, formazan MTT, which is proportional to the number of living cells present. Mean proliferation values of untreated control cell cultures were taken as 100%.

[5] = system: multiple myeloma cell line MM1.S; assay: MTT cell viability, multiple myeloma cell line MM1.S; type: cell-based
Procedure: (§6) In this sense, in order to carry out these assays the authors incubated the myeloma cell line MM1.S at different concentrations with the cannabinoid agent WIN 55-212,2 for 48 and 96 hours, and cell viability was determined by means of MTT metabolization. Mean proliferation values of untreated control cell cultures were taken as 100%. The data corresponds to the means+/−the standard deviation of the triplicates of each of the 4 assays performed. […] Cell viability also drops after 96 hours of exposure to the drug at the same concentrations.
as §4, §5
as §6, with “incubated” for “incubated the”, “the means +/− the” for “the means+/−the”, “drug ay” for “drug at”

CD45+ lymphocytes = assay: 7AAD viability of lymphocytes in primary bone marrow culture of myeloma patients; type: cell-based, human
Procedure: as §1, §2, §3

How did the cell viability [1] turn out when `Cc1c(C(=O)c2cccc3ccccc23)c2cccc3c2n1[C@H](CN1CCOCC1)CO3` [WIN 55,212-2, (R)-(+)-[2,3-Dihydro-5-methyl-3-(4-morpholinylmethyl)pyrrolo[1,2,3-de]-1,4 benzoxazin-6-yl]-1-naphtalenylmethanone] was run?
The cell viability was “not affected”.

And the cell viability [2]?
Its cell viability is “not affected”.

What about the “concentration from which a cytotoxic effect (significant drop in cell viability, p<0.05) is seen” value (myeloma cell line U266 [3]) of the same compound?
Its value is no less than 10 µM.

And the cytotoxicity at 50 µM (CD38+ plasma cells; Homo sapiens, 18 h, read-out: reduction of cell viability)?
Its cytotoxicity at 50 µM is greater than 80%.

And the “doses producing a drastic drop in cell viability” value (CD38+ plasma cells; plasma cells, bone marrow primary culture, 12 or 18 h)?
The value was “greater than 10 uM”.

What about the “population of plasma cells after incubation” value (CD38+ plasma cells; plasma cells, bone marrow primary culture, 18 h, 20 uM and 50 uM) of the same compound?
Its value is “drastically reduced”.

What about the cytotoxicity at 50 µM (myeloma cell line U266 [4]; U-266, 48 h, read-out: inhibition of cell viability, U266, MTT, 48 h, 50 uM) of the same compound?
Its cytotoxicity at 50 µM is roughly 60%.

And the cytotoxicity at 50 µM (myeloma cell line U266 [4]; U-266, 96 h, read-out: inhibition (drop) of cell viability, U266, MTT, 96 h, 50 uM)?
Its cytotoxicity at 50 µM is roughly 80%.

And the “cell viability drops to” value (myeloma cell line U266 [4]; U266, MTT, 48 h, 10 uM and 20 uM, untreated control = 100%)?
The value was 40%.

What about the “inhibition of cell viability” value (myeloma cell line U266 [4]; U266, MTT, 48 h, between 10 uM and 20 uM) of the same compound?
Its value is “about 40%”.

What about the “sensitivity of cell line MM1.S compared with cell line U266” value ([5]; 48 and 96 h) of the same compound?
Its value is “more sensitive”.

And the “concentration after which cell viability noticeably dropped” value ([5]; MM1.S, 48 h)?
Its value is “greater than 1 uM”.

And the cytotoxicity ([5]; MM1.S, 48 h, 10 uM, 20 uM and 50 uM)?
The cytotoxicity was “greater than 50%”.

What about the “cell viability after longer incubation” value ([5]; MM1.S, 96 h, same concentrations as at 48 h) of the same compound?
Its value is “also drops; also recorded: also affected”.

What about the “drop in cell viability at 96 h compared with 48 h” value ([5]; MM1.S, 96 h vs 48 h) of the same compound?
Its value is “lower than at short incubation times”.

And the loss of viability (CD45+ lymphocytes; 0.5-50 micromol, 12 or 18 h)?
The loss of viability was “only detected at the highest dose”.

And the “drop in cell viability” value (CD45+ lymphocytes; 7AAD, 18 h, 50 uM)?
The value was 40%.
